Assay: HILIC, Waters ACQUITY UPLC BEH Amide, 100 × 2.1 mm, 1.7 µm; A: water + 0.125% formic acid + 10 mM ammonium formate; B: 5% water + 95% acetonitrile + 0.125% formic acid + 10 mM ammonium formate; gradient (min/%B) 0/100 2/100 7.7/70 9.5/40 10.25/30 12.75/100 17/100
Conditions: stereoisomer not certain

SMILES | LC retention time [min]
CC(C)C12OC1C1OC13C1(C)CCC4=C(COC4=O)C1CC1OC13C2O (configuration not stated) [Triptolide] | 1.02
CN1C2CCC1CC(OC(=O)c1c[nH]c3ccccc13)C2 (configuration not stated) [Tropisetron] | 3.81
COc1cc(C(=O)NC2CCCNC2)cc(OC)c1OC (configuration not stated) [Troxipide] | 5.04
NCCc1c[nH]c2ccccc12 [Tryptamine] | 6.92
c1ccc2c3c([nH]c2c1)CNCC3 [Tryptoline] | 4.9
NC(Cc1ccc(O)cc1)C(=O)NC(Cc1ccc(O)cc1)C(=O)NC(Cc1ccc(O)cc1)C(=O)O (stereo not drawn) [Tyr-Tyr-Tyr] | 7.09
NCCc1ccc(O)cc1 [Tyramine] | 5.58
CN1CCc2cc(Cl)c(O)cc2C(c2ccccc2)C1 (configuration not stated) [UNII-UGT5535REQ] | 2.89
O=c1cc[nH]c(=O)[nH]1 [Uracil] | 2.4
COc1ccccc1N1CCN(CCCNc2cc(=O)n(C)c(=O)n2C)CC1 [Urapidil] | 4.58
O=C(O)C=Cc1cnc[nH]1 [Urocanic acid] | 3.69
Cc1onc(-c2ccccc2)c1-c1ccc(S(N)(=O)=O)cc1 [Valdecoxib] | 1.01
COc1cc(C=O)ccc1O [Vanillin] | 1.15
CCCc1nc(C)c2c(=O)[nH]c(-c3cc(S(=O)(=O)N4CCN(CC)CC4)ccc3OCC)nn12 [Vardenafil] | 1.7
COc1ccc(C(CN(C)C)C2(O)CCCCC2)cc1 (configuration not stated) [Venlafaxine] | 2.44
CC(=O)OC1CC2CCC3C(CCC4(C)C3CC([N+]3(C)CCCCC3)C4OC(C)=O)C2(C)CC1N1CCCCC1 (configuration not stated) [Vercuronium] | 5.53
OC1CCCCC1N1CCC(c2ccccc2)CC1 (configuration not stated) [Vesamicol] | 2.65
CCC1(O)CC2CN(CCc3c([nH]c4ccccc34)C(C(=O)OC)(c3cc4c(cc3OC)N(C)C3C(O)(C(N)=O)C(O)C5(CC)C=CCN6CCC43C65)C2)C1 (configuration not stated) [Vindesine] | 5.76
C=COC(N)=O [Vinyl Carbamate] | 1.34

SMILES | LC retention time [min]
Cc1ccnc2c1NC(=O)c1cccnc1N2C1CC1 [Viramune] | 1.16
O=c1cc(-c2ccc(O)cc2)oc2c(C3OC(CO)C(O)C(O)C3O)c(O)cc(O)c12 (configuration not stated) [Vitexin] | 5.33
CC(c1ncncc1F)C(O)(Cn1cncn1)c1ccc(F)cc1F (configuration not stated) [Voriconazole] | 1.02
NC(Cn1ccc(=O)[nH]c1=O)C(=O)O (configuration not stated) [Willardiine] | 8.72
O=c1[nH]c(=O)c2ncn(C3OC(CO)C(O)C3O)c2[nH]1 (configuration not stated) [Xanthosine] | 7.3
COc1c2occc2cc2ccc(=O)oc12 [Xanthotoxin] | 1.04
COc1cc(N)c(Cl)cc1C(=O)NC1CN2CCC1CC2 (configuration not stated) [Zacopride] | 4.66
COc1cc(C(=O)NS(=O)(=O)c2ccccc2C)ccc1Cc1cn(C)c2ccc(NC(=O)OC3CCCC3)cc12 [Zafirlukast] | 1
CCN(C(C)=O)c1cccc(-c2ccnc3c(C#N)cnn23)c1 [Zaleplon] | 1.02
COc1cc(-c2ccc(=O)[nH]n2)ccc1OC(F)F [Zardaverine] | 1.19
CC1CCCC(O)CCCCCc2cc(O)cc(O)c2C(=O)O1 (configuration not stated) [Zeranol] | 1.11
CN(C)CCc1c[nH]c2ccc(CC3COC(=O)N3)cc12 (configuration not stated) [Zolmitriptan] | 4.8
Cc1ccc(-c2nc3ccc(C)cn3c2CC(=O)N(C)C)cc1 [Zolpidem] | 1.62
C=C1CCOC1=O [alpha-Methylene-gamma-butyrolactone] | 1.05
CC1=C2C3OC(=O)C(C)C3CCC2(C)C=CC1=O (stereo not drawn) [alpha-Santonin] | 1.07
CNC[C@H](N)C(=O)O [beta-N-Methylaminoalanine] | 9.32
CN(C)c1ccc(N=Nc2ccccc2)cc1 [p-(Dimethylamino)azobenzene [methyl yellow]] | 0.93
CN1C(=O)C(O)CC1c1cccnc1 (stereo not drawn) [trans-3'-Hydroxycotinine] | 2.02
OCC1OC(Oc2cc(O)cc(C=Cc3ccc(O)cc3)c2)C(O)C(O)C1O (stereo not drawn) [trans-Piceid] | 4.64

Results, then the molecule that gave them:

LC retention time [min] | SMILES
6.92 | NC(Cc1c[nH]c2ccccc12)C(=O)O (configuration not stated) [Tryptophan]
5.91 | NC(=O)C(N)Cc1c[nH]c2ccccc12 (configuration not stated) [Tryptophanamide]
7.38 | NC(Cc1ccc(O)cc1)C(=O)NC(Cc1ccc(O)cc1)C(=O)O (configuration not stated) [Tyr-Tyr]
7.61 | NC(Cc1ccc(O)cc1)C(=O)O (configuration not stated) [Tyrosine]
7.8 | NC(=O)NC(CCC(=O)O)C(=O)O (configuration not stated) [Ureidoglutaric acid]
8.97 | O=c1ccn(C2OC(COP(=O)(O)O)C(O)C2O)c(=O)[nH]1 (configuration not stated) [Uridine 5'-monophosphate]
4.72 | O=c1ccn(C2OC(CO)C(O)C2O)c(=O)[nH]1 (configuration not stated) [Uridine]
6.83 | CC(C)C(N)C(=O)OCCOCn1cnc2c(=O)[nH]c(N)nc21 (configuration not stated) [Valaciclovir]
7.24 | CC(C)C(N)C(=O)O (configuration not stated) [Valine]
1.69 | CCCCC(=O)N(Cc1ccc(-c2ccccc2-c2nn[nH]n2)cc1)C(C(=O)O)C(C)C (configuration not stated) [Valsartan]
3.7 | CCC1(O)CC2CN(CCc3c([nH]c4ccccc34)C(C(=O)OC)(c3cc4c(cc3OC)N(C=O)C3C(O)(C(=O)OC)C(OC(C)=O)C5(CC)C=CCN6CCC43C65)C2)C1 (configuration not stated) [Vincristine]
4.76 | CCC1=CC2CN(C1)Cc1c([nH]c3ccccc13)C(C(=O)OC)(c1cc3c(cc1OC)N(C)C1C(O)(C(=O)OC)C(OC(C)=O)C4(CC)C=CCN5CCC31C54)C2 (configuration not stated) [Vinorelbine]
0.99 | CC(=O)CC(c1ccccc1)c1c(O)c2ccccc2oc1=O (configuration not stated) [Warfarin]
6.01 | CN(CCO)CC(O)Cn1cnc2c1c(=O)n(C)c(=O)n2C (configuration not stated) [Xanthinol]
1.23 | CC(c1cc2ccccc2s1)N(O)C(N)=O (configuration not stated) [Zileuton]
7.06 | N[C@H]1[C@@H](OP(=O)(O)O)O[C@H](CO)[C@H](O)[C@@H]1O [alpha-Galactosamine-1-phosphate]
0.92 | CSCCC(=O)C(=O)O [alpha-Keto-gamma-(methylthio)butyric acid]
8.68 | C[C@](N)(Cc1cnc[nH]1)C(=O)O [alpha-Methylhistidine]
8.02 | NCCC(=O)O [beta-Alanine]
4.55 | CC(C)(O)CC(=O)O [beta-Hydroxyisovaleric acid]
9.77 | NCC(O)CCC(N)C(=O)O (configuration not stated) [delta-Hydroxylysine]
7.86 | NCCCC(=O)O [gamma-Aminobutyric Acid]
8.98 | NC(CCC(=O)NC(CS)C(=O)O)C(=O)O (configuration not stated) [gamma-Glutamyl-cysteine]
9.55 | NC(=O)CCC(NC(=O)CCC(N)C(=O)O)C(=O)O (configuration not stated) [gamma-Glutamylglutamine]
8.1 | CC(C)CC(NC(=O)CCC(N)C(=O)O)C(=O)O (configuration not stated) [gamma-Glutamylleucine]
8.55 | CSCCC(NC(=O)CCC(N)C(=O)O)C(=O)O (configuration not stated) [gamma-Glutamylmethionine]
8.52 | NC(CCC(=O)NC(Cc1ccc(O)cc1)C(=O)O)C(=O)O (configuration not stated) [gamma-Glutamyltyrosine]
9.74 | CC(OP(=O)(O)O)C(N)C(=O)O (configuration not stated) [o-Phosphothreonine]
1.38 | O=C(O)C=Cc1ccc(O)cc1 [p-Coumaric acid]

Reference: the RepoRT retention time repository
